Two sequences from patent publication US7906620B2, “Tumor associated antigen, peptides thereof, and use of same as anti-tumor vaccines” (Yeda Research and Development Co. Ltd., priority 2002, dated 2011) can be followed below.

The subject of assay [1] is HLA-A2-peptide specific CD8+ cells. Kind of assay: MHC-peptide tetramer monitoring of HLA-A2-peptide specific CD8+ cells. Type of assay: cell-based, human. Particulars: stimulated PBMC, MHC-peptide tetramers.
Assay [2] deals with RMAS-HHD-B7.1 target cells. Kind of assay: Immunogenicity in HHD mice after immunization with dendritic cells pulsed with peptide pools. In kind it is in vivo. Particulars: DCs pulsed with pools of 2-4 peptides; effector-to-target ratio 25:1. The procedure: FIGS. 13A and 13B are graphs showing immunogenicity of PAP- or STEAP-derived peptides in HHD mice. The mice were immunized i.v. one time with 1×10^6 peptide-loaded syngeneic dendritic cells (DCs). The DCs were loaded separately with individual peptides, washed and pooled before immunization. Spleens were removed on day 10, and splenocytes were re-stimulated in vitro by 100 μM PAP-derived (FIG. 13A) or STEAP-derived (FIG. 13B) peptides in OPTIMEM for 2 h at 37° C., 5% CO2, followed by restimulation of lymphocytes for 4 more days in RPMI-HEPES, as described. CTL assays were performed on day 5 with individual PAP-, STEAP-derived peptides loaded on RMAS-HHD-B7.1 as targets. Non-relevant HIV derived peptide-loaded RMAS-HHD-B7.1 cells were used as negative controls. The effector-to-target ratio of 25:1 is shown.
The immunogenicity of the peptides, namely their potential to induce T cell responses, was subsequently examined in an in vivo model. A strain of β2 microglobulin (β2m) HLA-A2.1 Monochain Transgenic, H-2D^b−/−Xβ2m^−/− double knockout mice (HHD mice) was used. Upon vaccination of these mice, a repertoire of human HLA-A2.1 restricted CTLs is produced. The lysis patterns of each of the individual peptides loaded on target cells were first evaluated following immunization with syngeneic dendritic cells pulsed with pools of 2-4 synthetic peptides derived from each examined protein.

The test system of assay [3] is LNCaP. Put plainly: Lysis of LNCaP tumor cells by human anti-peptide CTL. In kind it is cell-based. Particulars: LNCaP high and low HLA expressors as targets. An excerpt:
FIGS. 18A-18E are graphs showing that human anti-peptide CTL from a healthy donor kills LNCaP tumor cells. PBMC from a healthy donor (FIGS. 18A-18C) or a CaP patient (FIGS. 18D-18E) were stimulated with PAP-3 (FIGS. 18A, 18D), STEAP-3 (FIGS. 18B, 18E) or PSGR-1 (FIG. 18C) as described. LNCaP/CRL1740 (LNCaP high in HLA-A2.1 expression), LNCaP/CRL10995 (LNCaP low in HLA-A2.1 expression) and PC3 (negative for HLA-A2.1) served as targets in CTL assays.
When human PBMC are stimulated in vitro by PAP-3 and STEAP-3 peptides, the resulting CTL can lyse target cells (T2, EL4/HHD) pulsed with PAP-3, STEAP-3 or PSGR-1 and PSGR-6 peptides. (FIGS. 15 and 16). Here, these findings were expanded and peripheral blood of three healthy and two CaP individuals was tested for the existence of CTL precursors against PAP-3, STEAP-3 and PSGR-1 peptides. Leukopheresis products of the donors were obtained from Barzilai Medical Center (Ashkelon, Israel) according to Declaration of Helsinki Principles. PBMC were isolated by centrifugation on Ficoll-Plaque Plus gradients (Amersham, Sweden). In vitro priming of CTL was done over autologous DC that were prepared from monocytes by IL-4 and GM-CSF treatment and matured with a IL-1β, IL-6, TNF-α and PGE2 cocktail. DC were pulsed with synthetic peptides and PBMC were supplemented with IL-7. Two days later, IL-2 was added and renewed every three days. Two additional re-stimulations were done every 7 days over peptide pulsed monocytes. Seven days after the third stimulation, lymphocytes were harvested and a cytolytic assay was performed using relevant/non-relevant peptide pulsed or non-pulsed T2 cells (FIGS. 17A-17C) and LNCaP (high and low HLA expressors) cells as targets (FIGS. 18A-18E). […] Monitoring of HLA-A2-peptide specific CD8+ cells for PAP-3 and STEAP-3 was also performed by MHC-peptide tetramers (tetramers of recombinant HLA-A2.1-beta2 microglobulin single chain with peptides were prepared in collaboration with Dr Yoram Reiter, Technion, Haifa). […]

For assay [4], the system named is PC3-HHD tumors. Put plainly: Adoptive transfer of anti-peptide CTL to CD1 nude mice bearing PC3-HHD tumors. In kind it is in vivo. Particulars: for complete rejection of tumors: local injection day 7, PAP-3: 35×10^6 lymphocytes (11×10^6 CD8+), STEAP-3: 50×10^6 (3×10^6 CD8+), IL-2; for tumor growth in the other mice: same groups as complete rejection. The source says: FIGS. 19A and 19B are graphs showing that adoptively transferred anti-peptide CTL retard tumor growth. HHD derived anti-PAP3 (FIG. 19A) or STEAP-3 (FIG. 19B) were stimulated in vitro and transferred to CD1 nude mice bearing 7 day PC3-HHD tumors (expressing PAP and STEAP) as described. Tumor growth was followed for 38 days.
HHD mice were immunized i.p. 6 times (twice at week) with 10^6 syngeneic dendritic cells pulsed with either PAP-3, STEAP-3 or irrelevant (tyrosinase-derived, HLA-A2.1 binding) peptides. Spleens were removed on day 10, and splenocytes were restimulated in vitro by 100 μM of either PAP-3 or STEAP-3 peptides in OPTIMEM for 2 h at 37° C., 5% CO2, followed by restimulation of lymphocytes for 4 more days in lymphocyte medium (RPMI-1640 supplemented with 25 mM HEPES, 10% heat-inactivated FCS, 0.1 mM non-essential amino acids, 1 mM sodium pyruvate, 2 mM. L-glutamine, 40 microg/ml garamycin and 5×10^−5 M 2-mercaptoethanol). Total lymphocytes were suspended at 10^6/ml and activated with plate-bound anti-CD3 mAb (145-2C11) for 72 h at 37° C. in 5% CO2 in 24-well plates. Activated cells were resuspended at a concentration of 3×10^5/ml lymphocyte medium with IL-2 (100 U/ml) for 3 days, then diluted 1:3 in fresh medium with IL-2 for an additional 4 days. Lymphocytes were harvested, samples were incubated with anti-CD4, anti-CD8 or isotype control mAb (all obtained from Catalog, USA), and analyzed using CellQuest software. Seven to nine CD1 nude mice per group received 4 Gy total body irradiation from a 137CS source, followed by s.c. inoculation with 5×10^6 PC3-HHD13 cells in Matrigel (BD PharMingen, San Diego, Calif.) to initiate tumors. Seven days later, mice were injected locally with 35×10^6 PAP-3 or tyrosinase specific lymphocytes (11×10^6 were CD8+), 50×10^6 STEAP-3 specific lymphocytes (3×10^6 were CD8+) or PBS. IL-2 (1000 U) was injected twice a day for five consecutive days. Tumor size was measured 3 times per week.

In the case of “ILLWQPIPV (listed as Homo sapiens) [PAP-3, PAP start position 135]”, in assay [1], the “Levels of HLA-A2-peptide specific CD8+ cells” value was determined as 1.7%. In assay [2], the “lysis of peptide-loaded RMAS-HHD-B7.1 target cells” value is given as “significant lysis”. In assay [3], the “lysis of tumor cells expressing endogenously processed proteins” value is “lyse tumor cells”. Besides, in assay [4], the “complete rejection of tumors” value is reported as 4/8 and the “tumor growth in the other mice” value is recorded as “retarded growth”.

“LLLGTIHAL (listed as Homo sapiens) [STEAP-3, STEAP start position 262]”: the “Levels of HLA-A2-peptide specific CD8+ cells” value in assay [1] amounted to 0.76%. Further, in assay [2], the “lysis of peptide-loaded RMAS-HHD-B7.1 target cells” value is on record as “significant lysis”. Also, the “lysis of tumor cells expressing endogenously processed proteins” value in assay [3] is “lyse tumor cells”. Further, in assay [4], the “complete rejection of tumors” value is given as 2/9 and the “tumor growth in the other mice” value is on record as “retarded growth”.
